{"source": "ChEMBL document CHEMBL5212743", "about": "“Selectivity Literature for EUbOPEN Chemogenomics Library wave 3” (2023)", "key": {"[1]": {"target": "BMP-2-inducible protein kinase (Homo sapiens) (UniProt Q9NSY1)", "sequence (Q9NSY1 whole entry, looked up)": "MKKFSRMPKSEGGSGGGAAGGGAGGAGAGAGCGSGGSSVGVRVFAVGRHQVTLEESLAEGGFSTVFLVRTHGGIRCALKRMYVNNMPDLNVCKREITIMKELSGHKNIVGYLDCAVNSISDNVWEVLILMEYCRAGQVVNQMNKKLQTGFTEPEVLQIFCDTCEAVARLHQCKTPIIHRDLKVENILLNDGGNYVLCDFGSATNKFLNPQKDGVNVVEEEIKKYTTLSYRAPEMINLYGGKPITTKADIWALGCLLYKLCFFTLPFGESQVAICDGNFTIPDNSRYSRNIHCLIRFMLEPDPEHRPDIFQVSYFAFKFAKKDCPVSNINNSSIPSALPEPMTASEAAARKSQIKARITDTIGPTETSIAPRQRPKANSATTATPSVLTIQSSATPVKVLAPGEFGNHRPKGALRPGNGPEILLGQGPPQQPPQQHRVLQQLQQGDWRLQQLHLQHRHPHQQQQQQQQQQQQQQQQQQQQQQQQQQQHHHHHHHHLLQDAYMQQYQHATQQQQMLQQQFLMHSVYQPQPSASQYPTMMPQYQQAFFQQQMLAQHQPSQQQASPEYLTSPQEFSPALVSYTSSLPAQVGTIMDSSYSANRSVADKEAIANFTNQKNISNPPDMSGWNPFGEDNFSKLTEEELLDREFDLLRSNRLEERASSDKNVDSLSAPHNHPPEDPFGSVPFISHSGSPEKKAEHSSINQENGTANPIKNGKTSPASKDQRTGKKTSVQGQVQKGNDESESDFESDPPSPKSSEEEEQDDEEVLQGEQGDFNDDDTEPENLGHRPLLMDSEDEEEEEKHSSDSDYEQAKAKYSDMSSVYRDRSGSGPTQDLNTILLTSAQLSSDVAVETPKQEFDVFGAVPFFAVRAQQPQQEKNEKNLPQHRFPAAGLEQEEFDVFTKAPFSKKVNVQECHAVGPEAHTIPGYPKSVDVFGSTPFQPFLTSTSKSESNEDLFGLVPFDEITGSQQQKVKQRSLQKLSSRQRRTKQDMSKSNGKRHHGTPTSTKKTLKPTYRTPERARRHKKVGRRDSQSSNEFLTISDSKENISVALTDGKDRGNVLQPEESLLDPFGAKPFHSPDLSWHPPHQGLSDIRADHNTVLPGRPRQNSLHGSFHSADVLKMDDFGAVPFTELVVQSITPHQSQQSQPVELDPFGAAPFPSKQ", "experiment": "Selectivity interaction (KinomeScan (DiscoverX)) EUB0000702a BMP2K", "conditions": "at 1 µM"}, "[2]": {"target": "T1, Serine/threonine-protein kinase 17A (Homo sapiens, UniProt Q9UEE5)", "T1 sequence (Q9UEE5 whole entry)": "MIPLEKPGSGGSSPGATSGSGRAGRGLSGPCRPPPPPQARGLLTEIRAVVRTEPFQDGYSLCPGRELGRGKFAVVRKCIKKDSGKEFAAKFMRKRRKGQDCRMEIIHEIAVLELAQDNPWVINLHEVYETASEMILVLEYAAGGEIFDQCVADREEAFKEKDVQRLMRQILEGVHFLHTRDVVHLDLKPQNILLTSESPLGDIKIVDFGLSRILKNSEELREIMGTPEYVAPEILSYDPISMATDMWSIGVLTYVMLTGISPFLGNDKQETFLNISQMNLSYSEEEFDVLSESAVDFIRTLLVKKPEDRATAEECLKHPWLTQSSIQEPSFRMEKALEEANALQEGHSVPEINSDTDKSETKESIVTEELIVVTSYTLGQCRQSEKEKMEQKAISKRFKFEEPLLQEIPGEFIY", "experiment": "Selectivity interaction (NanoBRET assay (HEK293T cells)) EUB0000305b STK17A"}, "[3]": {"target": "T1, Serine/threonine-protein kinase 17A", "experiment": "Selectivity interaction (KinomeScan (DiscoverX, competition-binding assay)) EUB0000305b STK17A"}, "[4]": {"target": "Tyrosine-protein kinase SYK (Homo sapiens, UniProt P43405)", "experiment": "Selectivity interaction (KinomeScan (DiscoverX)) EUB0000305b SYK", "conditions": "CellTiter-Glo assay (Promega, proliferation in ACHN cells): IC50 = […] nM, https://www.sgc-ffm.uni-frankfurt.de/#!specificprobeove, at 100 nM"}, "[5]": {"target": "T2, Dual specificity mitogen-activated protein kinase kinase 5 (Homo sapiens, UniProt Q13163)", "T2 sequence (Q13163 whole entry)": "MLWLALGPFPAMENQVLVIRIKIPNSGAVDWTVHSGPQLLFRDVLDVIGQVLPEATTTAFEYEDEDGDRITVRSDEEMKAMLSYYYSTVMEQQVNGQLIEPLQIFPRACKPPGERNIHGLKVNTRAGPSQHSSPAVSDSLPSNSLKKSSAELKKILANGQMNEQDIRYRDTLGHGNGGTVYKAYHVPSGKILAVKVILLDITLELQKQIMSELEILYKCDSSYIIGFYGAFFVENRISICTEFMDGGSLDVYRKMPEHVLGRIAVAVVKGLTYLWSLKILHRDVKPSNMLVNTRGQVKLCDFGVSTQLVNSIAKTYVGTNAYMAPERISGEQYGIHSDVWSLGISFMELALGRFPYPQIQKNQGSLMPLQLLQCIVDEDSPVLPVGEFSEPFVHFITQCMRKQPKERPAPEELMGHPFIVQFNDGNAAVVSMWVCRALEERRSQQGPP", "experiment": "Selectivity interaction (Enzymatic assay) EUB0000305b MAP2K5"}, "[6]": {"target": "Epithelial discoidin domain-containing receptor 1 (Homo sapiens, UniProt Q08345)", "sequence (Q08345 whole entry, the tested form may be a part)": "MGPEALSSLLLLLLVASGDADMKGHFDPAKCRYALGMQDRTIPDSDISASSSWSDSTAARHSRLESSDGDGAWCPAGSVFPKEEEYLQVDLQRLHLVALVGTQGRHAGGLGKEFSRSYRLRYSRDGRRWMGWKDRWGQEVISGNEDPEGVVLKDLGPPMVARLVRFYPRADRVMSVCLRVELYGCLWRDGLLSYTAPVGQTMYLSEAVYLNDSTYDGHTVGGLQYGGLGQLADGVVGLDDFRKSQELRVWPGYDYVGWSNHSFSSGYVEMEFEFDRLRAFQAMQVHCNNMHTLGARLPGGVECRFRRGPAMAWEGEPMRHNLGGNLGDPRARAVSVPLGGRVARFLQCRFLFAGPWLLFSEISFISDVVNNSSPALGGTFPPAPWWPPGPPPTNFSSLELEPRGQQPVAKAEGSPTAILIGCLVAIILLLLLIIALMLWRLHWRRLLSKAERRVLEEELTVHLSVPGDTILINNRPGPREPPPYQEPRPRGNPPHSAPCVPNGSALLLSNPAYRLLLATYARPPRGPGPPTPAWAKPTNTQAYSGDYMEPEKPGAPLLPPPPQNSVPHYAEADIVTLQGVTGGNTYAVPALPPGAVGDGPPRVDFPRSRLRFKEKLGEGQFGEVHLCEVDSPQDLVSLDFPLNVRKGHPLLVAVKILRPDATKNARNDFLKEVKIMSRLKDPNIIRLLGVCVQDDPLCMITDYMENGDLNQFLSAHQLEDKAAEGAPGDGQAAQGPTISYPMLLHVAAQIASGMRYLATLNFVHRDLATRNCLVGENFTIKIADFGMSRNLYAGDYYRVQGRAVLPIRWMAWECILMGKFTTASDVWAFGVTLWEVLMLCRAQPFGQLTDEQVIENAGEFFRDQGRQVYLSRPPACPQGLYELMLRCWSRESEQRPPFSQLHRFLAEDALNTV", "conditions": "at 1 µM"}, "[7]": {"target": "Cyclin-dependent kinase 8 (Homo sapiens) (UniProt P49336)", "sequence (P49336 whole entry)": "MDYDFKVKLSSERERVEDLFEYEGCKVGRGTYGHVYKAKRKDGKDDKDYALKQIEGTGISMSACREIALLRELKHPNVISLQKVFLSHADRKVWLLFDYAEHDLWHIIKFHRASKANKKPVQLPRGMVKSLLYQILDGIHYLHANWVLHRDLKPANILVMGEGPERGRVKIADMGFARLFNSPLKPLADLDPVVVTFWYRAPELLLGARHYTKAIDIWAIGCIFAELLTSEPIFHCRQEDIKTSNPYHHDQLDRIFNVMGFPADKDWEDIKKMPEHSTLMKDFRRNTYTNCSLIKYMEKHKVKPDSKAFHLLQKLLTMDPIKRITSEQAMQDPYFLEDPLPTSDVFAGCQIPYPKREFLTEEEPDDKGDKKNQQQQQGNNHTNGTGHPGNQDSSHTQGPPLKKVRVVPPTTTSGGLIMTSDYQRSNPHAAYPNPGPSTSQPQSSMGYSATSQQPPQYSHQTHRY", "conditions": "at 1 µM"}, "[8]": {"target": "T3, Dual specificity mitogen-activated protein kinase kinase 5 (Homo sapiens) (UniProt Q13163)", "T3 sequence (whole entry)": "T2 sequence (Q13163 whole entry)", "conditions": "at 1 µM"}, "[9]": {"target": "Calcium/calmodulin-dependent protein kinase kinase 2 (Homo sapiens) (UniProt Q96RR4)", "sequence (Q96RR4 2-588 limits assumed)": "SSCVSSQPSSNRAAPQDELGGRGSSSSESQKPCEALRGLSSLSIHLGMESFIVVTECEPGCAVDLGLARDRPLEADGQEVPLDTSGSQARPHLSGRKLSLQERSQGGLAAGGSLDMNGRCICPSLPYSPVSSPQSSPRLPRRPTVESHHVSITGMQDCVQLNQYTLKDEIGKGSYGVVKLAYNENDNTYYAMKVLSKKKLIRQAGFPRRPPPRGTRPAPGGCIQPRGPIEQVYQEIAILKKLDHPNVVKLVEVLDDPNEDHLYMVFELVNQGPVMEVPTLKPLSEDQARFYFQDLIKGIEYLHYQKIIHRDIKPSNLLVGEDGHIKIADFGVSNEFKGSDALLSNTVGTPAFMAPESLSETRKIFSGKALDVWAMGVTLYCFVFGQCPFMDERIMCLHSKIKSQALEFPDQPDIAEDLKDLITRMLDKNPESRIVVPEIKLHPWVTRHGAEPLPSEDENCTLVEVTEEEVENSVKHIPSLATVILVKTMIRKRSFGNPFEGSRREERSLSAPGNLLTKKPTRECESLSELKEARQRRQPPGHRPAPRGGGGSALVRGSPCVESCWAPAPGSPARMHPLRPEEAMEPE", "experiment": "Selectivity interaction (KinomeScan (DiscoverX)) EUB0000169b CAMKK2", "conditions": "at 1 µM"}, "[10]": {"target": "Ribosomal protein S6 kinase alpha-4 (Homo sapiens) (UniProt O75676)", "sequence (O75676 whole entry, looked up)": "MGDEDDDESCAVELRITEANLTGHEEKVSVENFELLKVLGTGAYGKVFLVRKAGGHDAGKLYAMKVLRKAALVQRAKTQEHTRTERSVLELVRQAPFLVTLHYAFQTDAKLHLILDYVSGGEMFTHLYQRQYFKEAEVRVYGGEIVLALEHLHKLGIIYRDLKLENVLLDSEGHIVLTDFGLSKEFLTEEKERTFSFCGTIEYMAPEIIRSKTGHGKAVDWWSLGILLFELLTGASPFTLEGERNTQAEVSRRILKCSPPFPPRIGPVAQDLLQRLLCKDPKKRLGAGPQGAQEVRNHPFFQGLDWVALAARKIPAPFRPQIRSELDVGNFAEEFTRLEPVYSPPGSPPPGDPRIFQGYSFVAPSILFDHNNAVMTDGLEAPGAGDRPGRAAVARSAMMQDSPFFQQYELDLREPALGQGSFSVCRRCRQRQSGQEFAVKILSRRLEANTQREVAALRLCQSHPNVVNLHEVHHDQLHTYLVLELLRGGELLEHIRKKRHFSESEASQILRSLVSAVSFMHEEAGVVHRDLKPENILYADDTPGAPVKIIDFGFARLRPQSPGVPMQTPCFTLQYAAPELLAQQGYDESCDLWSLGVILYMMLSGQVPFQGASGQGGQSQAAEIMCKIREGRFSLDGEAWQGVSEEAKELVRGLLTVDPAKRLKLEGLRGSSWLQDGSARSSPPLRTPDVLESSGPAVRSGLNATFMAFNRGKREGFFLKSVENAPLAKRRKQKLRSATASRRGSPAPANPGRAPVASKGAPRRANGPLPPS", "experiment": "Selectivity interaction (KinomeScan (DiscoverX)) EUB0000169b RPS6KA4", "conditions": "at 1 µM"}, "[11]": {"target": "T4, Phosphatidylinositol 5-phosphate 4-kinase type-2 beta (Homo sapiens) (UniProt P78356)", "T4 sequence (whole entry)": "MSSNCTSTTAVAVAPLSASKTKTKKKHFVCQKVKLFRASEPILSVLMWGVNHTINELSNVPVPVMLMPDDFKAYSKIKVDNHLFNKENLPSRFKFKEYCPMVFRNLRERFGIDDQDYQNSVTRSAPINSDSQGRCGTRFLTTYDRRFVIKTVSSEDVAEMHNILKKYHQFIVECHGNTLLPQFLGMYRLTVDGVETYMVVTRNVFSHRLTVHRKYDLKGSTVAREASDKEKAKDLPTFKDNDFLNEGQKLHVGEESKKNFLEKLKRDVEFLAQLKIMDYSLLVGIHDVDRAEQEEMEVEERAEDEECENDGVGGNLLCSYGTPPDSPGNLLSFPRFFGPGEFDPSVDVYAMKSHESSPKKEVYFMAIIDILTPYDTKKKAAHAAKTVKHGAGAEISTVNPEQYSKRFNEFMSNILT", "experiment": "Selectivity interaction (KinomeScan (DiscoverX)) EUB0000698a PIP4K2B", "conditions": "at 10 µM"}, "[12]": {"target": "Serine/threonine-protein kinase 3 (Homo sapiens) (UniProt Q13188)", "sequence (Q13188 whole entry)": "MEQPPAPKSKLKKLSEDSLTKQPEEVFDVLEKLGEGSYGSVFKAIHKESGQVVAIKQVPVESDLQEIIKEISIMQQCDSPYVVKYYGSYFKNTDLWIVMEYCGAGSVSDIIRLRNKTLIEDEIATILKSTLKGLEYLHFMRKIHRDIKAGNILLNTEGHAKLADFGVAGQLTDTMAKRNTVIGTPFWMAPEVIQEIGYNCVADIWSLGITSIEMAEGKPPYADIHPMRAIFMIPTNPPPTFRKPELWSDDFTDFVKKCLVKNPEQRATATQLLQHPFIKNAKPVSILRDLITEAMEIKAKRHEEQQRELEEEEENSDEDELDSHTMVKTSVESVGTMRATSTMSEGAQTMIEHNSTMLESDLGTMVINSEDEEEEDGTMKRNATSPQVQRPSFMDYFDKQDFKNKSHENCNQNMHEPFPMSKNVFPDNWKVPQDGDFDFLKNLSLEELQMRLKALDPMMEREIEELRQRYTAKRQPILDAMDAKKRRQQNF", "experiment": "Selectivity interaction (KinomeScan (DiscoverX)) EUB0000698a STK3", "conditions": "at 10 µM"}, "[13]": {"test_system": "Mast/stem cell growth factor receptor Kit (Homo sapiens), P10721 [D816V]", "experiment": "Selectivity interaction (KinomeScan (DiscoverX)) EUB0000698a KIT", "conditions": "at 10 µM"}, "[14]": {"target": "T5, Serine/threonine-protein kinase ULK2 (Homo sapiens) (UniProt Q8IYT8)", "T5 sequence (whole entry)": "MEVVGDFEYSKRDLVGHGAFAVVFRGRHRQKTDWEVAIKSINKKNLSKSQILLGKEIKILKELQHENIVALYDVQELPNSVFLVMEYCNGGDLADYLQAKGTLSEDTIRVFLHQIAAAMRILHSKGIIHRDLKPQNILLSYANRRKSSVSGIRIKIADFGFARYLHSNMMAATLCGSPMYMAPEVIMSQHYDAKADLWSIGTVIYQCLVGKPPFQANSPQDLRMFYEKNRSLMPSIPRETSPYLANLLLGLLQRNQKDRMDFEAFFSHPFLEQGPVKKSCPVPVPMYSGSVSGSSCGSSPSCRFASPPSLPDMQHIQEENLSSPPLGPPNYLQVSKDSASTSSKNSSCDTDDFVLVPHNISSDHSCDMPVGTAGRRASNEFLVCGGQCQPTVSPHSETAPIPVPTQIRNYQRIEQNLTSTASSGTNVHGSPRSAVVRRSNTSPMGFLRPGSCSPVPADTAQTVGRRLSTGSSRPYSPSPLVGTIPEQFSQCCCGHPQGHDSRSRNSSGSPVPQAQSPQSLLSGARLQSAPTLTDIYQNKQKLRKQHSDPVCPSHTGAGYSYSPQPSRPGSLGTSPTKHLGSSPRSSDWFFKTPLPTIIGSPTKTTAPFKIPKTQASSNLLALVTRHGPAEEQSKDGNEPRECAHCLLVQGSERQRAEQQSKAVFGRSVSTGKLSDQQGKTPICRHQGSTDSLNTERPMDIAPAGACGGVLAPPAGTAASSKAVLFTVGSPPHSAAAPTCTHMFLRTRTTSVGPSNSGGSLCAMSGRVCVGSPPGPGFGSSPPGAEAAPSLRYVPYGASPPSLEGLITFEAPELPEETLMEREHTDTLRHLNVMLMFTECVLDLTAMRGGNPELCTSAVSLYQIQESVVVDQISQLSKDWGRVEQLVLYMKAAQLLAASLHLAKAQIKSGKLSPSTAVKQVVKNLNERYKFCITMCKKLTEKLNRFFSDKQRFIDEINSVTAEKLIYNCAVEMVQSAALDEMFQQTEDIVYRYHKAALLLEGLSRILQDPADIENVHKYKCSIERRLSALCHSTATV", "experiment": "Selectivity interaction (KinomeScan (DiscoverX)) EUB0000178b ULK2", "conditions": "at 1 µM"}, "[15]": {"target": "Tyrosine-protein kinase JAK2 (Homo sapiens, UniProt O60674)", "experiment": "Selectivity interaction (KinomeScan (DiscoverX)) EUB0000138c JAK2", "conditions": "at 100 nM"}}, "data": [{"smiles": "CN(c1ccnc(CNc2nc(Nc3ccc4c(c3)CC(=O)N4)ncc2C(F)(F)F)n1)S(C)(=O)=O", "note": "[PF-00911705]", "values": [{"measurement": "% of control", "setting": "[1]", "value": 2.3, "unit": "%"}]}, {"smiles": "C[C@H](c1ccnc(Nc2nc3ccc(-c4cc(N(C)C)ncn4)cc3[nH]2)c1)N1CCN(C(=O)CC(F)(F)F)CC1", "note": "[BAY-985]", "values": [{"measurement": "IC50", "setting": "[2]", "value": "> 20000", "unit": "nM"}, {"measurement": "Kd", "setting": "[3]", "value": 74, "unit": "nM"}, {"measurement": "% of control", "setting": "[4]", "value": 31, "unit": "%"}, {"measurement": "IC50", "setting": "[5]", "value": 847, "unit": "nM"}]}, {"smiles": "CCOc1cn(-c2ccc(F)cc2C)nc1C(=O)Nc1ccc(Oc2ccnc3cc(OC)c(OC)cc23)c(F)c1", "values": [{"measurement": "% of control", "setting": "[6]", "value": "< 10", "unit": "%"}, {"measurement": "% of control", "setting": "[7]", "value": "< 10", "unit": "%"}, {"measurement": "% of control", "setting": "[8]", "value": "< 10", "unit": "%"}]}, {"smiles": "CC[C@@H]1C(=O)N(C)c2cnc(Nc3ccc(C(=O)NC4CCN(C)CC4)cc3OC)nc2N1C1CCCC1", "values": [{"measurement": "% of control", "setting": "[9]", "value": 3.4, "unit": "%"}, {"measurement": "% of control", "setting": "[10]", "value": 0.3, "unit": "%"}]}, {"smiles": "COc1cc2ncn(-c3cc(OCc4ccccc4C(F)(F)F)c(C(N)=O)s3)c2cc1OC", "note": "[GW843682X]", "values": [{"measurement": "% of control", "setting": "[11]", "value": 6.6, "unit": "%"}, {"measurement": "% of control", "setting": "[12]", "value": 1.8, "unit": "%"}, {"measurement": "% of control", "setting": "[13]", "value": 1.4, "unit": "%"}]}, {"smiles": "CN1C(=O)c2sccc2N(C)c2nc(Nc3ccc(S(N)(=O)=O)cc3)ncc21", "values": [{"measurement": "% of control", "setting": "[14]", "value": 4.8, "unit": "%"}]}, {"smiles": "CNC(=O)c1ccc(Nc2ncc(C(F)(F)F)c(NCc3nccnc3N(C)S(C)(=O)=O)n2)cc1", "note": "[DEFACTINIB]", "values": [{"measurement": "% of control", "setting": "[15]", "value": 4.8, "unit": "%"}]}]}
